Where two headings read alike, the source gives them in different places.
Experiments:
[1] = test system: Hep G2 transplanted tumor (human hepatoma carcinoma cell); test: Example 6: TTD and Acla A combined on Hep G2 transplanted tumor in nude mice; format: in vivo, BALB/c-nu nude mice; details: Hep G2, Jef 50 mg/kg/time intragastric, 3 times a day, 10 days, Day 29
Description: (§1) Under sterile conditions, the above tumor cells were collected in the logarithmic growth phase. A549 was injected by subcutaneous injection in an amount of 1×10 7/0.2 mL/nude mice (cell viability>90%) into the right subaxillary of the nude mice, whereas HepG2 was injected by subcutaneous injection in an amount of 1×10 7/0 2 mL/nude mice (cell viability>90%) into the left subaxillary of the nude mice, thus establishing transplated tumor models of lung cancer and liver cancer respectively in nude mice. The mice were administered from the second day after the inoculation. […] Each mouse was intragastrically administered in 0.4 ml each time and 3 times a day, at 8:00, 14:00 and 20:00. The administrations were successive for 10 days. The day before administration was deemed as Day 0 and the body weight and tumor size of the mice were determined every 5 days to produce a dynamic plot on body weight and tumor growth. On Day 29, the mice were sacrificed and the tumors were taken out and weighed. The tumor inhibition rate (%) was calculated after the effect of the medicament based on a tumor inhibition rate of the control group being zero.
(§2) The values determined were presented as mean±standard error (Mean±SD). The experimental data for each group was analyzed with One-way ANOVA method in the SPSS 18.0 statistical software, and p<0.05 means that the differences are statistically significant.

[2] = test system: A549 transplanted tumor (human non-small cell lung cancer cell line); test: Example 6: TTD and Acla A combined on A549 transplanted tumor in nude mice; format: in vivo, BALB/c-nu nude mice; details: A549, Jef 50 mg/kg/time intragastric, 3 times a day, 10 days, Day 29
Description: as §1, §2

[3] = test system: A549 transplanted tumor (human non-small cell lung cancer cell line); test: Example 5: Acla A on A549 transplanted tumor in nude mice; format: in vivo, BALB/c-nu nude mice; details: A549, Jef 50 mg/kg/time intragastric, 2 times a day, 14 days, Day 20
Description: Under sterile conditions, the above tumor cells were collected in the logarithmic growth phase. A549 was injected by subcutaneous injection in an amount of 6×10 6/0.2 mL/nude mice (cell viability>90%) into the right subaxillary of the nude mice, thus establishing transplated tumor models of lung cancer in nude mice. The mice were administered from the second day after the inoculation. The experimental group was intragastrically administered at the experimentally designed amount, the negative control group was intragastrically administered with sterile water, and the positive control group is intragastrically administered with Jef. Each mouse was intragastrically administered in 0.4 ml each time and 2 times a day, at 8:00, and 14:00. The administrations were successive for 14 days. The day before administration was deemed as Day 0 and the body weight and tumor size of the mice were determined every 5 days to produce a dynamic plot on body weight and tumor growth. On Day 20, the mice were sacrificed and the tumors were taken out and weighed. The tumor inhibition rate (%) was calculated after the effect of the medicament based on a tumor inhibition rate of the control group being zero.
as §2

[4] = test system: human leukemia Jurkat cells; details: cited from earlier work
[5] = test system: peripheral blood leucocyte of a normal human being; details: berbamine 0.5 μg/mL to 10 μg/mL; cited from earlier work

COc1cc2ncnc(Nc3ccc(F)c(Cl)c3)c2cc1OCCCN1CCOCC1 [Jef, Jefitinib]
Mass of tumor ([1]; Mean ± SD): 0.31 ± 0.10 g
tumor inhibition rate ([1]; control = 0, * P < 0.05): 54.08* %
Mass of tumor ([2]; Mean ± SD): 1.52 ± 1.00 g
tumor inhibition rate ([2]; control = 0): −34.11%
Mass of tumor ([3]; Mean ± SD): 0.38 ± 0.37 g
tumor inhibition rate ([3]; control = 0): −14.34%

COc1cc2c3cc1Oc1c(OC)c(OC)cc4c1[C@@H](Cc1ccc(O)c(c1)Oc1ccc(cc1)C[C@@H]3N(C)CC2)N(C)CC4 [berbamine, 6,6′,7-trimethoxy-2,2′-dimethylberbaman-12-ol]
cell viability ([4]; berbamine 0.5 μg/mL): 93.69%
cell viability ([4]; berbamine 10 μg/mL): 14.85%
cytotoxic effect (in words) [5]: no evident cytotoxic effect

From patent US20150290232A1, “DRUG COMPOSITION FOR TREATING TUMORS AND APPLICATION THEREOF” (priority 2012, published 2015)
